Measurements: ChEMBL document CHEMBL5528063, “Antitrypanosomal Chloronitrobenzamides” (J Med Chem, 2024)
Activity calls are given as the source filed them. The rule behind the calls is not given here.

Key:
[1] = test system: Raji; test: Cytotoxicity against human Raji cells assessed as inhibition of cell growth incubated for 72 hrs by CellTiter-Glo luminescence assay; format: functional, cell-based
[2] = Aqueous solubility of compound in 1-propanol at pH 7.4 incubated for 18 hrs by UV spectrum analysis; format: physicochemical; settings: 1-propanol (aqueous, pH 7.4), pH 7.4
[3] = Cytotoxicity against HEK293 cells assessed as inhibition of cell growth incubated for 72 hrs by CellTiter-Glo luminescence assay; format: toxicity, cell-based; settings: human
[4] = Stability in rat plasma assessed as half-life measured after 24 hrs by UPLC-MS analysis; format: ADME, cell-free
[5] = Elimination half-life in C57BL/6 mouse at 50 mg/kg, po measured after 144 hrs by LC-MS/MS analysis; format: ADME, organism-based; settings: in vivo, read-out: beta t1/2 (converted)
[6] = Cmax in Sprague-Dawley rat at 6 mg/kg, iv measured after 45.3 hrs by LC/MS analysis; format: ADME, organism-based; settings: in vivo
[7] = Stability of compound in PBS at pH 3 assessed as half-life measured after 48 hrs by UPLC-MS analysis; format: physicochemical
[8] = Permeability of compound at pH 7.4 incubated for 30 mins by PAMPA-GIT assay; format: ADME; settings: read-out: permeability
[9] = Stability in mouse plasma assessed as half-life measured after 24 hrs by UPLC-MS analysis; format: ADME, cell-free
[10] = Metabolic stability in human liver microsomes assessed as intrinsic clearance at 20 uM incubated for 2 hrs by UPLC-MS analysis; format: ADME, Microsome; settings: read-out: CLH
[11] = Cytotoxicity against human BJ cells assessed as inhibition of cell growth incubated for 72 hrs by CellTiter-Glo luminescence assay; format: toxicity, cell-based
[12] = test system: Trypanosoma brucei brucei; test: Trypanocidal activity against Trypanosoma brucei brucei 427 assessed as reduction in parasitemia at 8 uM incubated for 4 days by clonal dilution based CellTiter-Glo assay; format: functional, organism-based; settings: time 4.0 day
[13] = test system: Trypanosoma brucei rhodesiense; test: Antitrypanosomal activity against Trypanosoma brucei rhodesiense STIB900 infected in NMRI mouse model assessed as survival at 50 mg/kg, po pre-infected for 3 days followed by compound administration for 4 days and measured 60 days post infection (reference value: 7 day); format: functional; settings: time 57 day
[14] = Metabolic stability in rat liver microsomes assessed as half-life at 20 uM; format: ADME, Microsome
[15] = Stability of compound in SGF assessed as half-life measured after 24 hrs by UPLC-MS analysis; format: ADME
[16] = Clearance in C57BL/6 mouse at 50 mg/kg, po measured after 144 hrs by LC-MS/MS analysis; format: ADME, organism-based; settings: in vivo
[17] = Metabolic stability in […] mouse liver microsomes assessed as intrinsic clearance at 20 uM measured after 2 hrs by UPLC-MS analysis; format: ADME, Microsome; settings: read-out: CLH
[18] = Oral bioavailability in Sprague-Dawley rat at 50 mg/kg measured after 45.3 hrs by LC/MS analysis; format: ADME, organism-based; settings: in vivo
[19] = Stability of compound in PBS at pH 7.4 assessed as half-life measured after 48 hrs by UPLC-MS analysis; format: physicochemical
[20] = Metabolic stability in rat liver microsomes assessed as intrinsic clearance at 20 uM; format: ADME, Microsome; settings: read-out: CLH
[21] = Metabolic stability in human liver microsomes assessed as half-life at 20 uM incubated for 2 hrs by UPLC-MS analysis; format: ADME, Microsome
[22] = test system: Trypanosoma congolense; test: Antitrypanosomal activity against Trypanosoma congolense IL3000 assessed as inhibition of parasite proliferation incubated for 69 hrs by resazurin dye based microplate fluorometric analysis; format: functional, organism-based; settings: IL3000, 69 h
[23] = Metabolic stability in […] mouse liver microsomes assessed as half-life at 20 uM measured after 2 hrs by UPLC-MS analysis; format: ADME, Microsome
[24] = test system: HepG2; test: Cytotoxicity against human HepG2 cells assessed as inhibition of cell growth incubated for 72 hrs by CellTiter-Glo luminescence assay; format: functional, cell-based; settings: HepG2, 72 h
[25] = Protein binding in rat plasma at 20 uM incubated for 18 hrs by UPLC-MS analysis; format: ADME, cell-free; settings: read-out: PPB (converted)
[26] = AUC in C57BL/6 mouse at 50 mg/kg, po measured after 144 hrs by LC-MS/MS analysis; format: ADME, organism-based; settings: in vivo
[27] = test system: Trypanosoma brucei brucei; test: Antitrypanosomal activity against Trypanosoma brucei brucei 427 assessed as inhibition of parasite proliferation incubated for 48 hrs by CellTiter-Glo luminescent assay; format: functional, organism-based; settings: Trypanosoma brucei, 427, 48 h
[28] = Drug concentration in C57BL/6 mouse brain at 50 mg/kg, po measured after 144 hrs by LC-MS/MS analysis; format: ADME, organism-based; settings: read-out: Ct
[29] = Tmax in C57BL/6 mouse at 50 mg/kg, po measured after 144 hrs by LC-MS/MS analysis; format: ADME, organism-based; settings: in vivo
[30] = Cmax in C57BL/6 mouse at 50 mg/kg, po measured after 144 hrs by LC-MS/MS analysis; format: ADME, organism-based; settings: in vivo
[31] = Protein binding in mouse plasma at 20 uM incubated for 18 hrs by UPLC-MS analysis; format: ADME, cell-free; settings: read-out: PPB (converted)
[32] = Toxicity in Sprague-Dawley rat at 50 mg/kg, po measured after 45.3 hrs; format: organism-based; settings: in vivo
[33] = test system: Trypanosoma brucei brucei; test: Trypanocidal activity against Trypanosoma brucei brucei 427 assessed as reduction in parasitemia at 0.1 to 1.5 uM incubated for 4 days in presence of nifurtimox by CellTiter-Glo assay; format: functional, organism-based; settings: dose 0.1-1.5 µM, time 4.0 day
[34] = Stability of compound in PBS at pH 5 assessed as half-life measured after 48 hrs by UPLC-MS analysis; format: physicochemical
[35] = test system: Trypanosoma brucei brucei; test: Antitrypanosomal activity against Trypanosoma brucei brucei 427 assessed as reduction in parasitemia in presence of fetal bovine serum; format: functional, organism-based
[36] = Stability in human plasma assessed as half-life measured after 24 hrs by UPLC-MS analysis; format: ADME, cell-free
[37] = Efflux ratio of apparent permeability from basolateral to apical side over apical to basolateral side in human Caco-2 cells incubated for 2 hrs by UPLC/MS analysis; format: ADME, cell-based
[38] = test system: Trypanosoma vivax; test: Antitrypanosomal activity against Trypanosoma vivax STIB 719/ ILRAD 560 assessed as inhibition of parasite proliferation incubated for 45 hrs by resazurin dye based microplate fluorometric analysis; format: functional, organism-based; settings: STIB 719/ ILRAD 560, 45 h
[39] = test system: Trypanosoma congolense; test: Antitrypanosomal activity against Trypanosoma congolense STIB 736/IL-1180 infected in NMRI mouse model assessed as survival at 50 mg/kg, ip administrated […] starting from day 7 to day 10 post infection (reference value: 11 day); format: functional
[40] = Protein binding in human plasma at 20 uM incubated for 18 hrs by UPLC-MS analysis; format: ADME, cell-free; settings: read-out: PPB (converted)

Cc1ccc(-c2nc3ccccc3s2)cc1NC(=O)c1cc([N+](=O)[O-])c(N2CCN(C)CC2)cc1Cl
EC50 [1]: > 25000 nM | solubility at 18 h [2]: ≤ 0.3 µM | EC50 at 72 h [3]: > 25000 nM | half-life [4]: > 24 h | half-life [5]: 7 h | Cmax [6]: > 10 µM | half-life [7]: > 24 h | Papp at 0.5 h [8]: 237 ×10⁻⁶ cm/s | half-life [9]: > 24 h | CLint scaled at 20 µM [10]: < 6 mL/min/kg | EC50 at 72 h [11]: > 25000 nM | Activity [12]: inactive | Survival [13]: 14 days | half-life at 20 µM [14]: > 4 h | half-life [15]: > 24 h | CL/F [16]: 0.357 mL/min | CLint scaled at 20 µM [17]: < 14 mL/min/kg | bioavailability [18]: 14% | half-life [19]: 5.7 h | CLint scaled at 20 µM [20]: < 12 mL/min/kg | half-life at 20 µM [21]: > 4 h | EC50 [22]: 3 nM | half-life at 20 µM [23]: > 4 h | EC50 [24]: > 25000 nM | fraction unbound at 18 h, 20 µM [25]: 0.007 | AUC at 144 h [26]: 83 µM·h | EC50 [27]: 1 nM | concentration at 144 h [28]: 8 µM | Tmax [29]: 4 h | Cmax [30]: 6.5 µM | fraction unbound at 18 h, 20 µM [31]: 0.009 | Activity [32]: Non-Toxic | Activity [33]: Active | half-life [34]: > 24 h | Activity [35]: Active | half-life [36]: > 24 h | efflux ratio at 2 h [37]: 1.92 | EC50 [38]: 6 nM | Survival [39]: 21 days | fraction unbound at 18 h, 20 µM [40]: 0.002
